Tests used:
[1] = target: T1, recombinant human ALK5 (TGF-βR1) protein (Homo sapiens, UniProt P36897); assay: Biochemical ALK5 (TGF-βR1) assay to measure pKi (LANCE Ultra ULight kinase assay); details: apparent pKi, converted from pIC50 by Cheng-Prusoff
T1 construct: purchased Life Technologies PR9075A
T1 sequence (P36897 34-503): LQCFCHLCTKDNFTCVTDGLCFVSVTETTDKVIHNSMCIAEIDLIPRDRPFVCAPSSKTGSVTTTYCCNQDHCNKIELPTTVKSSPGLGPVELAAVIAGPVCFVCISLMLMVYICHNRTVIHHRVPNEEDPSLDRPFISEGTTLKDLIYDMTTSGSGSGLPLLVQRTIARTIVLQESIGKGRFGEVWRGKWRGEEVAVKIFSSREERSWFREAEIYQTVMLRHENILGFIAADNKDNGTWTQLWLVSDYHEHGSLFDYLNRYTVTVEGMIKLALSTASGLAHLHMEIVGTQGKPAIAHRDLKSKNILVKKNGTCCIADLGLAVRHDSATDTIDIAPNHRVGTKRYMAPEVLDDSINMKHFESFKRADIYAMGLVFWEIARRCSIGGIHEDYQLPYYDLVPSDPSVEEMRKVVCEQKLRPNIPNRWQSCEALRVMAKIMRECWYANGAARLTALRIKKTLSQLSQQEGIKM
Summary of the method: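 Enzyme preincubated with compound for 60 min at room temperature, then reacted with ATP (125 μM as 5× stock) for 60 min at 37 °C. Stopped with EDTA plus Eu-anti-phospho-Topoisomerase 2-alpha (Thr1342) antibody and read by TR-FRET at 665 nm. pIC50 from a 4-parameter fit, converted to pKi by Cheng-Prusoff.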

[2] = tested on: TGF-β-stimulated SMAD3 phosphorylation in BEAS-2B cells; assay: Cellular ALK5 potency assay, inhibition of TGF-β stimulated pSMAD3 formation in BEAS-2B cells; assay type: cell-based; details: Homo sapiens, pSMAD3, TGF-β 10 ng/mL, read-out: BEAS2B pIC50 (converted)
Summary of the method: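 Human lung epithelial BEAS-2B cells were preincubated 1 h at 37 °C with compound in HBSS/HEPES/1% BSA, then stimulated 30 min with 10 ng/mL TGF-β. pSMAD3 in lysates was quantified by AlphaLISA relative to untreated stimulated cells; reported as pIC50.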

SMILES	Ki [1] [nM]	IC50 [2] [nM]
Cc1cccc(-c2nccc(Nc3ccnc(Nc4cccc(NC(=O)C5CCN(C6CCOCC6)CC5)c4)n3)n2)n1 [Compound 357, N-[3-[[4-[[2-(6-methyl-2-pyridyl)pyrimidin-4-yl]amino]pyrimidin-2-yl]amino]phenyl]-1-tetrahydropyran-4-yl-piperidine-4-carboxamide]	0.0398 to 0.316	25.1 to 158
Cc1cccc(-c2nccc(Nc3ccnc(Nc4ccc(N5CCNCC5)c(CC(=O)OCC5CNC5)c4)n3)n2)n1 [Compound 57, azetidin-3-ylmethyl 2-[5-[[4-[[2-(6-methyl-2-pyridyl)pyrimidin-4-yl]amino]pyrimidin-2-yl]amino]-2-piperazin-1-yl-phenyl]acetate]	0.0398 to 0.316	200 to 1260
COc1cc(N2CCOCC2)ccc1Nc1nccc(Nc2ccnc(-c3cccc(C)n3)n2)n1 [Compound 348, N2-(2-methoxy-4-morpholino-phenyl)-N4-[2-(6-methyl-2-pyridyl)pyrimidin-4-yl]pyrimidine-2,4-diamine]	3.98 to 31.6	200 to 1260
Cc1cccc(-c2nccc(Nc3ccnc(Nc4cccc(C(=O)OCCN5CCNCC5)c4)n3)n2)n1 [Compound 553, 2-piperazin-1-ylethyl 3-[[4-[[2-(6-methyl-2-pyridyl)pyrimidin-4-yl]amino]pyrimidin-2-yl]amino]benzoate]	0.398 to 3.16	25.1 to 158
Cc1cccc(-c2nccc(Nc3ccnc(Nc4ncc(C(=O)OC[C@@H]5CCNC5)s4)n3)n2)n1 [Compound 630, [(3R)-pyrrolidin-3-yl]methyl 2-[[4-[[2-(6-methyl-2-pyridyl)pyrimidin-4-yl]amino]pyrimidin-2-yl]amino]thiazole-5-carboxylate]	3.98 to 31.6	200 to 1260
Cc1cccc(-c2nccc(Nc3ccnc(Nc4cccc(S(=O)(=O)NCCN(C)C)c4)n3)n2)n1 [Compound 420, N-[2-(dimethylamino)ethyl]-3-[[4-[[2-(6-methyl-2-pyridyl)pyrimidin-4-yl]amino]pyrimidin-2-yl]amino]benzenesulfonamide]	0.0398 to 0.316	25.1 to 158
Cc1cccc(-c2nccc(Nc3ccnc(Nc4ccc(-c5cnn(C(C)C)c5)cc4)n3)n2)n1 [Compound 425, N2-[4-(1-isopropylpyrazol-4-yl)phenyl]-N4-[2-(6-methyl-2-pyridyl)pyrimidin-4-yl]pyrimidine-2,4-diamine]	0.398 to 3.16	25.1 to 158
Cc1cccc(-c2nccc(Nc3ccnc(Nc4nc(CN5CC(C(=O)O)C5)cs4)n3)n2)n1 [Compound 629, 1-[[2-[[4-[[2-(6-methyl-2-pyridyl)pyrimidin-4-yl]amino]pyrimidin-2-yl]amino]thiazol-4-yl]methyl]azetidine-3-carboxylic acid]	0.0398 to 0.316	1580 to 10000
Cc1cccc(-c2nccc(Nc3ccnc(Nc4ncc(C(=O)OC5CNC5)s4)n3)n2)n1 [Compound 325, azetidin-3-yl 2-[[4-[[2-(6-methyl-2-pyridyl)pyrimidin-4-yl]amino]pyrimidin-2-yl]amino]thiazole-5-carboxylate]	3.98 to 31.6	25.1 to 158
Cc1cccc(-c2nccc(Nc3ccnc(Nc4cc(C(=O)O)ccn4)n3)n2)n1 [Compound 636, 2-[[4-[[2-(6-methyl-2-pyridyl)pyrimidin-4-yl]amino]pyrimidin-2-yl]amino]pyridine-4-carboxylic acid]	3.98 to 31.6	1580 to 10000
COc1cc(Nc2nccc(Nc3ccnc(-c4cccc(C)n4)n3)n2)ccc1NC(=O)C1CCNCC1 [Compound 511, N-[2-methoxy-4-[[4-[[2-(6-methyl-2-pyridyl)pyrimidin-4-yl]amino]pyrimidin-2-yl]amino]phenyl]piperidine-4-carboxamide]	0.398 to 3.16	25.1 to 158
Cc1cccc(-c2nccc(Nc3ccnc(Nc4cccc(CO)c4)n3)n2)n1 [Compound 45, [3-[[4-[[2-(6-methyl-2-pyridyl)pyrimidin-4-yl]amino]pyrimidin-2-yl]amino]phenyl]methanol]	0.0398 to 0.316	≤ 20
Cc1cccc(-c2nccc(Nc3ccnc(Nc4ccc(CN5CCCC(C(=O)NC6CCNCC6)C5)cc4)n3)n2)n1 (stereo not shown) [Compound 320, 1-[[4-[[4-[[2-(6-methyl-2-pyridyl)pyrimidin-4-yl]amino]pyrimidin-2-yl]amino]phenyl]methyl]-N-(4-piperidyl)piperidine-3-carboxamide]	0.0398 to 0.316	25.1 to 158
Cc1cccc(-c2nccc(Nc3ccnc(Nc4csc(C(=O)O[C@H]5CCNC5)c4)n3)n2)n1 [Compound 544, [(3S)-pyrrolidin-3-yl] 4-[[4-[[2-(6-methyl-2-pyridyl)pyrimidin-4-yl]amino]pyrimidin-2-yl]amino]thiophene-2-carboxylate]	0.0398 to 0.316	25.1 to 158
COC(=O)C1CCN(c2ccc(Nc3nccc(Nc4ccnc(-c5cccc(C)n5)n4)n3)cc2)CC1 [Compound 60, methyl 1-[4-[[4-[[2-(6-methyl-2-pyridyl)pyrimidin-4-yl]amino]pyrimidin-2-yl]amino]phenyl]piperidine-4-carboxylate]	0.0398 to 0.316	25.1 to 158
Cc1cccc(-c2nccc(Nc3ccnc(Nc4ccc(C)c(N)c4)n3)n2)n1 [Compound 421, N2-(3-amino-4-methyl-phenyl)-N4-[2-(6-methyl-2-pyridyl)pyrimidin-4-yl]pyrimidine-2,4-diamine]	0.0398 to 0.316	≤ 20
Cc1cccc(-c2nccc(Nc3ccnc(Nc4csc(NC(=O)C5(CO)CNC5)c4)n3)n2)n1 [Compound 206, 3-(hydroxymethyl)-N-[4-[[4-[[2-(6-methyl-2-pyridyl)pyrimidin-4-yl]amino]pyrimidin-2-yl]amino]-2-thienyl]azetidine-3-carboxamide]	0.0398 to 0.316	200 to 1260

Second part, led by results:

Ki [1] [nM]	SMILES	IC50 [2] [nM]
0.0398 to 0.316	CC(=O)N(CC1CNC1)c1ccc(Nc2nccc(Nc3ccnc(-c4cccc(C)n4)n3)n2)cc1 [Compound 353, N-(azetidin-3-ylmethyl)-N-[4-[[4-[[2-(6-methyl-2-pyridyl)pyrimidin-4-yl]amino]pyrimidin-2-yl]amino]phenyl]acetamide]	25.1 to 158
0.0398 to 0.316	Cc1cccc(-c2nccc(Nc3ccnc(Nc4ccc(NS(=O)(=O)N5CCNCC5)cc4)n3)n2)n1 [Compound 93, N-[4-[[4-[[2-(6-methyl-2-pyridyl)pyrimidin-4-yl]amino]pyrimidin-2-yl]amino]phenyl]piperazine-1-sulfonamide]	200 to 1260
0.0398 to 0.316	Cc1cccc(-c2nccc(Nc3ccnc(Nc4ccc(N5CCOCC5)cc4)n3)n2)n1 [Compound 475, N4-(2-(6-methylpyridin-2-yl)pyrimidin-4-yl)-N2-(4-morpholinophenyl)pyrimidine-2,4-diamine]	≤ 20
0.0398 to 0.316	Cc1cccc(-c2nc(Nc3ccnc(Nc4ccc(NC5CNC5)cc4)n3)c3cccn3n2)n1 [Compound 1040, N2-[4-(azetidin-3-ylamino)phenyl]-N4-[2-(6-methyl-2-pyridyl)pyrrolo[2,1-f][1,2,4]triazin-4-yl]pyrimidine-2,4-diamine]	25.1 to 158
0.0398 to 0.316	Cc1cccc(-c2nccc(Nc3ccnc(Nc4ccc(N5CCN(CC6CNC6)CC5)cc4)n3)n2)n1 [Compound 380, N2-[4-[4-(azetidin-3-ylmethyl)piperazin-1-yl]phenyl]-N4-[2-(6-methyl-2-pyridyl)pyrimidin-4-yl]pyrimidine-2,4-diamine]	25.1 to 158
0.0398 to 0.316	Cc1cccc(-c2nccc(Nc3ccnc(Nc4ccc(C(=O)NC5CNC5)cc4)n3)n2)n1 [Compound 387, N-(azetidin-3-yl)-4-[[4-[[2-(6-methyl-2-pyridyl)pyrimidin-4-yl]amino]pyrimidin-2-yl]amino]benzamide]	≤ 20
0.398 to 3.16	Cc1cccc(-c2nccc(Nc3ccnc(Nc4ccc(NS(=O)(=O)C5CNC5)cc4)n3)n2)n1 [Compound 296, N-[4-[[4-[[2-(6-methyl-2-pyridyl)pyrimidin-4-yl]amino]pyrimidin-2-yl]amino]phenyl]azetidine-3-sulfonamide]	200 to 1260
0.0398 to 0.316	Cc1cccc(-c2nc(Nc3ccnc(Nc4ccc(C(=O)N5CCNCC5)cc4)n3)c3cccn3n2)n1 [Compound 1038, [4-[[4-[[2-(6-methyl-2-pyridyl)pyrrolo[2,1-f][1,2,4]triazin-4-yl]amino]pyrimidin-2-yl]amino]phenyl]-piperazin-1-yl-methanone]	25.1 to 158
0.0398 to 0.316	Cc1cccc(-c2nccc(Nc3ccnc(Nc4ccc(CN5CCN6CCCC6C5)cc4)n3)n2)n1 (stereo not shown) [Compound 129, N2-[4-(3,4,6,7,8,8a-hexahydro-1H-pyrrolo[1,2-a]pyrazin-2-ylmethyl)phenyl]-N4-[2-(6-methyl-2-pyridyl)pyrimidin-4-yl]pyrimidine-2,4-diamine]	25.1 to 158
